Source: ChEMBL document CHEMBL1697781, “Assessment of the health effects of chemicals in humans: II. Construction of an adverse effects database for QSAR modeling” (Curr Drug Discov Technol, 2004)

Assays:
Details in all cases: human; call rule not given here
Hepatotoxicity [1] = assay: FDA HLAED, liver enzyme composite activity
Hepatotoxicity [2] = assay: FDA HLAED, serum glutamic pyruvic transaminase (SGPT) increase
Hepatotoxicity [3] = assay: FDA HLAED, serum glutamic oxaloacetic transaminase (SGOT) increase
Hepatotoxicity [4] = assay: FDA HLAED, alkaline phosphatase increase
Hepatotoxicity [5] = assay: FDA HLAED, gamma-glutamyl transferase (GGT) increase
Hepatotoxicity [6] = assay: FDA HLAED, lactate dehydrogenase (LDH) increase
Wherever GGT Increase - Index Value is given: reference of the scale not given here.
Wherever LDH Increase - Index Value is given: reference of the scale not given here.

| Compound | Composite Activity - Active (Hepatotoxicity [1]) | Composite Activity - Marginal (Hepatotoxicity [1]) | Composite Activity - Score (Hepatotoxicity [1]) | SGPT Increase - Activity Score (Hepatotoxicity [2]) | SGPT Increase - Index Value (Hepatotoxicity [2]) | SGPT Increase - Number of Reports (Hepatotoxicity [2]) | SGOT Increase - Activity Score (Hepatotoxicity [3]) | SGOT Increase - Index Value (Hepatotoxicity [3]) | SGOT Increase - Number of Reports (Hepatotoxicity [3]) | Alkaline Phosphatase Increase - Activity Score (Hepatotoxicity [4]) | Alkaline Phosphatase Increase - Index Value (Hepatotoxicity [4]) | Alkaline Phosphatase Increase - Number of Reports (Hepatotoxicity [4]) | GGT Increase - Activity Score (Hepatotoxicity [5]) | GGT Increase - Index Value (Hepatotoxicity [5]) | GGT Increase - Number of Reports (Hepatotoxicity [5]) | LDH Increase - Activity Score (Hepatotoxicity [6]) | LDH Increase - Index Value (Hepatotoxicity [6]) | LDH Increase - Number of Reports (Hepatotoxicity [6]) | other results |
| --- | --- | --- | --- | --- | --- | --- | --- | --- | --- | --- | --- | --- | --- | --- | --- | --- | --- | --- | --- |
| O=c1[nH]cnc2c1ncn2[C@H]1CC[C@@H](CO)O1 [DIDANOSINE] | 3 | 1 | Active | Active | 12.9 | >= 4 | Active | 13.7 | >= 4 | Active | 14.5 | >= 4 | Inactive | 1.5 | < 4 | Marginally Active | 3 | >= 4 |  |
| O=C(O)c1cc(-c2ccc(F)cc2F)ccc1O [DIFLUNISAL] |  |  |  | Inactive | 0.5 | < 4 | Inactive | 0.3 | < 4 | Inactive | 0 | < 4 | Inactive | 0 | < 4 | Inactive | 0 | < 4 | Composite Activity - Active (Hepatotoxicity [1]; Liver): 0; Composite Activity - Marginal (Hepatotoxicity [1]; Liver): 0; Composite Activity - Score (Hepatotoxicity [1]; Liver): Inactive |
| COc1ccc([C@@H]2Sc3ccccc3N(CCN(C)C)C(=O)[C@@H]2OC(C)=O)cc1 [DILTIAZEM] | 0 | 0 | Inactive | Inactive | 0.1 | < 4 | Inactive | 0.3 | >= 4 | Inactive | 0.1 | < 4 | Inactive | 0 | < 4 | Inactive | 0.1 | < 4 |  |
| CNCC(O)c1ccc(OC(=O)C(C)(C)C)c(OC(=O)C(C)(C)C)c1 (centres undefined) [DIPIVEFRIN] | 0 | 0 | Inactive | Inactive | 0 | < 4 | Inactive | 0 | < 4 | Inactive | 0 | < 4 | Inactive | 0 | < 4 | Inactive | 0 | < 4 |  |
| CC[C@H]1OC(=O)[C@H](C)[C@@H](O[C@H]2C[C@@](C)(OC)[C@@H](O)[C@H](C)O2)[C@H](C)[C@@H](O[C@@H]2O[C@H](C)C[C@H](N(C)C)[C@H]2O)[C@](C)(O)C[C@@H](C)[C@@H]2N[C@@H](COCCOC)O[C@H]([C@H]2C)[C@]1(C)O [DIRITHROMYCIN] | 0 | 0 | Inactive | Inactive | 5.4 | < 4 | Inactive | 5.4 | < 4 | Inactive | 0 | < 4 | Inactive | 2.7 | < 4 | Inactive | 0 | < 4 |  |
| CC(CCc1ccc(O)cc1)NCCc1ccc(O)c(O)c1 (centres undefined) [DOBUTAMINE] | 0 | 0 | Inactive | Inactive | 0 | < 4 | Inactive | 0 | < 4 | Inactive | 0 | < 4 | Inactive | 0 | < 4 | Inactive | 0 | < 4 |  |
| CC(=O)O[C@@]12CO[C@@H]1C[C@H](O)[C@@]1(C)C(=O)[C@H](O)C3=C(C)[C@@H](OC(=O)[C@H](O)[C@@H](NC(=O)OC(C)(C)C)c4ccccc4)C[C@@](O)([C@@H](OC(=O)c4ccccc4)[C@H]21)C3(C)C.O.O.O [DOCETAXEL] | 0 | 0 | Inactive | Inactive |  | < 4 | Inactive |  | < 4 | Inactive |  | < 4 | Inactive |  | < 4 | Inactive |  | < 4 |  |
| CCN[C@H]1C[C@H](C)S(=O)(=O)c2sc(S(N)(=O)=O)cc21 [DORZOLAMIDE] | 0 | 0 | Inactive | Inactive | 0.1 | < 4 | Inactive | 0.2 | < 4 | Inactive | 0 | < 4 | Inactive | 0 | < 4 | Inactive | 0.1 | < 4 |  |
